Measured values taken from patent publication US12421216B2, “Voruciclib polymorphs and methods of making and using thereof” (MEI PHARMA, INC., priority 2019, dated 2025).
Entries after “also recorded” stand apart in the source; their conditions may differ. Where a name gives a salt, the structure may show the parent alone.

Legend:
Type in all cases: physicochemical
[1] = Solubility of salts in water and in 0.2 M phosphate buffer pH 6 at 37° C. after 4 hours (HPLC-DAD); settings: for Dissolution behaviour in aqueous media (gelling, wettability): salt screen, water and/or 0.2 M phosphate buffer pH 6; for pH (4 h): pH at end of equilibration
Procedure, shortened: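 About 5 mg of salt received 200 μL aliquots of water or 0.2 M phosphate buffer pH 6, up to 1 mL, and was stirred at 37 °C for 4 h. After centrifugation and 0.2 […] PTFE filtration, dissolved concentration was determined by HPLC-DAD against voruciclib calibration, and final pH was recorded.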

[2] = Qualitative solubility determination in water at room temperature, with observation of gel formation; settings: for Behaviour upon addition of water (gel formation): small amount of water added to solid
Experimental: The aqueous solubility of Oxa2 (starting material) was assessed by the qualitative solubility determination approach. To 5.4 mg of Oxa2, water was added in steps of 50 μl until the material was dissolved (Exp. ID: SAS1). Visual inspection by the naked eye was used to decide whether complete dissolution occurred.
After the addition of 7.5 ml water, Oxa2 was not dissolved in water at room temperature. The suspension was heated to 50° C. upon which complete dissolution occurred, as indicated by a clear solution.
The aqueous solubility of Pho1 (Exp. ID: TCP23) was assessed by the qualitative solubility determination approach. To 5.6 mg of Pho1, water was added in steps of 50 μl until the material was dissolved (Exp. ID: SAS2). Visual inspection by the naked eye was used to decide whether complete dissolution occurred. After the addition of 700 μl water, Pho1 was not dissolved in water at room temperature whereas after a subsequent addition of 200 μl water (900 μl in total), the material completely dissolved.
The solubility of Mao1 in water was determined by adding small aliquots of water to the material until it was dissolved.

[3] = Physical stability upon exposure to accelerated aging conditions (AAC, 40° C./75% RH), re-analysis by HT-XRPD; settings: for Physical stability upon exposure to AAC: HT-XRPD before and after; for Stable during AAC: salt screen solids
[4] = Physical stability of solid forms upon drying under vacuum, HT-XRPD; settings: for Physical stability upon drying under deep/high vacuum: oxalate, phosphate, malonate forms, 5 mbar, 18 h
[5] = 0.2 M phosphate buffer pH 6, 37° C., 4 hours
[6] = 0.2M phosphate buffer pH 6, 37° C., 4 hours, about 1 mg salt in 1 mL
[7] = 0.2M phosphate buffer pH 6, 37° C., 4 hours, about 5 mg salt in 1 mL
[8] = 0.2 M phosphate buffer pH 6, 37° C., 4 hours, XRPD
[9] = 0.2M phosphate buffer pH 6, 37° C., about 1 mg salt in 1 mL
[10] = 0.2M phosphate buffer pH 6, 37° C., about 5 mg salt in 1 mL
[11] = water, 37° C., 4 hours, about 1 mg salt in 1 mL
[12] = water, 37° C., 4 hours, about 5 mg salt, up to 1 mL
[13] = water, 37° C., about 1 mg salt in 1 mL
[14] = water, 37° C., about 5 mg salt, up to 1 mL

SMILES | Dissolution behaviour in aqueous media (gelling, wettability) [1] | Behaviour upon addition of water (gel formation) [2] | Solubility in phosphate buffer [1, 5] | solubility [1, 6] | solubility [1, 7] [mg/mL] | Solids recovered / salt dissociation after solubility determination in buffer [1, 8] | Form (4 h) of residual solid [1, 9] | pH (4 h) [1, 9] | Form (4 h) of residual solid [1, 10] | pH (4 h) [1, 10] | solubility [1, 11] | solubility [1, 12] | pH (4 h) [1, 13] | pH (4 h) [1, 14] | Physical stability upon exposure to AAC ([3]; 40° C./75% RH, 2 days) | Stable during AAC ([3]; 40° C./75% RH, 2 days) | Physical stability upon drying under deep/high vacuum [4] | further results
CN1CC[C@H](c2c(O)cc(O)c3c(=O)cc(-c4ccc(C(F)(F)F)cc4Cl)oc23)[C@H]1CO (stereo in doubt) [voruciclib malonate, 2-(2-chloro-4-(trifluoromethyl)phenyl)-5,7-dihydroxy-8-((2S,3R)-2-(hydroxymethyl)-1-methylpyrrolidin-3-yl)-4H-chromen-4-one malonate salt] | no gelling | gelling was not observed when exposed to water | – | – | – | – | – | – | – | – | – | – | – | – | – | – | – | Solubility pH 6 [1, 5]: 0.07 mg/mL; Solubility water ([1]; water, 37° C., 4 hours): 4.4 mg/mL; solubility at 4 h ([1]; water, 37 °C, thermodynamic from solid, secondary salt screen (FIG. 290)): > 5000 µg/mL
CN1CC[C@@H](c2c(O)cc(O)c3c(=O)cc(-c4ccc(C(F)(F)F)cc4Cl)oc23)[C@@H]1CO.O=C(O)CC(=O)O [Mao1] | there was no gelling or increase in viscosity observed | no gel-formation was observed; also recorded: gel formation was not observed | 0.07 mg/mL | 0.02 mg/mL | 0.07 | dissociation of the salt occurred | Free | 6.2 | Free | 5.8 | (0.9) mg/mL | 4.44 mg/mL | 4.1 | 3.5 | physically stable upon exposure to AAC; also recorded: physically stable upon exposure to stress conditions | Yes | physically stable | Solubility in water ([1]; water, 37° C., 4 hours): 4.4 mg/mL; Solids recovered after solubility determination in water ([1]; water, 37° C., 4 hours, XRPD): the solids recovered were still identical to Mao1; Form (4 h) of residual solid [1, 14]: Mao1; Physically stable ([3]; malonate salt forms, exposure to AAC 40° C./75% RH, 2 days): Yes; Solid forms: Ambient-dried solid (AAC) ([3]; malonate salt thermocycling experiments, label = form of the ambient-dried solid before AAC, 40° C./75% RH, 2 days, HT-XRPD): Mao1; Solid forms: Evap. ML (AAC) ([3]; malonate salt thermocycling experiments, label = form of the solid from the evaporated mother liquor before AAC, 40° C./75% RH, 2 days, HT-XRPD): Mao1; Solid forms: Vacuum-dried solids (AAC) ([3]; malonate salt thermocycling experiments, label = form of the vacuum-dried solid before AAC, 40° C./75% RH, 2 days, HT-XRPD): Mao1; Liquid phase AAC (XRPD form after accelerated aging) ([3]; solids from evaporated mother liquors of the salt screen, 40° C./75% RH for 2 days, HT-XRPD): Mao1; Solubility in water at room temperature ([2]; qualitative determination by adding aliquots of water, visual): approximately 13 mg/ml
CN1CCC(c2c(O)cc(O)c3c(=O)cc(-c4ccc(C(F)(F)F)cc4Cl)oc23)C1CO.O=P(O)(O)O (stereo not drawn) [Pho1] | no gelling was observed | became a gel when exposed to water; also recorded: became a gel upon addition of water; also recorded: became a gel-like material | about 0.03 mg/mL | hazy | 0.03 | salt had dissociated in the buffer solution | Free | 6.0 | Free | 5.8 | (0.9) mg/mL | (5.2) mg/mL | 4.6 | 3.7 | the only stable from when exposed to advance aging conditions; also recorded: physically stable under AAC for 2 days; also recorded: physically stable upon exposure to AAC for two days; also recorded: remained stable | Yes | physically stable; also recorded: remained stable | Solid phase AAC (XRPD form after accelerated aging) ([3]; precipitated solids of the salt screen, dried under vacuum at 50° C., 40° C./75% RH for 2 days, HT-XRPD): Pho1; Vacuum ([4]; phosphate salt cooling crystallization, form after drying under deep vacuum (5 mbar), label = ambient-dried form): Pho1; Solid forms Vacuum ([4]; phosphate salt thermocycling solids, form after drying under deep vacuum (5 mbar, 18 h), HT-XRPD, label = ambient-dried form): Pho1
